Assay [1] concerns pyramidal cell (soma and axon initial segment). In words: Pressure application of GABA to soma and axon initial segment of pyramidal cells. It is filed as cell-based, rat. How it is done:
(§1) For perforated patch experiments, 3 mg/ml gramicidin (Sigma) was used, dissolved in DMSO and diluted to a final concentration of 9 μg/ml in the low [Cl^−]in pipette solution. […] Membrane potentials were corrected for junction potentials. […] Pressure waves (˜5 μm in diameter) and pipette positions on the soma and along the axon initial segment (30-40 μm from the soma) were imaged and the postsynaptic cell membrane was ruptured by gentle suction pulses to allow biocytin labelling and post-hoc comparison of pipette positions with light microscopic reconstructions. Cells were excluded from analysis if basal dendrites were closer than ˜30 μm to the pressure pipette and/or initial segment.
To characterize the interaction of axo-axonic cells (AACs) and their postsynaptic neurons, first the reversal potential of GABAergic inputs arriving to the perisomatic region of pyramidal cells was determined, elicited by AACs and basket cells in layers 2/3 of rat somatosensory cortex in vitro (FIG. 1). Paired recordings of presynaptic interneurons and postsynaptic pyramidal cells were performed using the gramicidin perforated patch placed onto the axon hillock between the soma and the initial segment. […] AACs were identified based on light microscopic reconstructions and analysis showing axonal candles or cartridges specific to this cell type [Szentagothai and Arbib (1974); Somogyi (1977)]

For assay [2], the system named is axo-axonic cells (AACs) and postsynaptic neurons, layer 2/3 somatosensory cortex slices. In words: Multiple whole-cell recordings of synaptic event sequences triggered by AACs in rat cortical slices. It is filed as cell-based. How it is done:
as §1

A further assay deals with human axo-axonic cell. The note with it: gabazine 20 μM.
The mark [3] stands for this setting: gabazine 20 μM, low [Cl−]in, reversible on washout.

Structures are written as SMILES. “Also recorded” adds a separate entry of the source.

Description for human axo-axonic cell: Anaesthesia was induced with intravenous midazolam and fentanyl (0.03 mg/kg and 1-2 μg/kg, respectively). A bolus dose of propofol (1-2 mg/kg) was administered intravenously. To facilitate endotracheal intubation, the patient recieved 0.5 mg/kg rocuronium. After 120 seconds, the trachea was intubated and the patient was ventilated with a mixture of O2—N2O at a ratio of 1:2. Anaesthesia was maintained with sevoflurane at MAC volume of 1.2-1.5. Slices were incubated at room temperature for 1 hour in a solution composed of 130 mM NaCl, 3.5 mM KCl, 1 mM NaH2PO4, 24 mM NaHCO3, 1 mM CaCl2, 3 mM MgSO4 and 10 mM D(+)-glucose, saturated with 95% O2 and 5% CO2. The solution used during recordings differed only in that it contained 3 mM CaCl2 and 1.5 mM MgSO4. Recordings were obtained at ˜35° C. from up to four concomitantly recorded cells visualized in layer 2/3 by infrared differential interference contrast videomicroscopy (Olympus BX60WI microscope, Hamamatsu CCD camera, Luigs & Neumann Infrapatch set-up and two HEKA EPC 10/double patch-clamp amplifiers). Signals were filtered at 8 kHz, digitized at 16 kHz and analyzed with PULSE software (HEKA). Micropipettes (5-7 MW) were filled with three types of solutions. […] Access resistance was continuously monitored throughout perforated patch experiments to check membrane rupture. […]

With `NCCCC(=O)O` [GABA, gamma-aminobutyric acid], the “reversal potential of GABA response, soma” value in assay [1] (GABA 1 mM pressure application to soma, perforated patch, n=7) was −71.2±2.7 mV. The “trials with spikes triggered below somatic threshold potential” value in assay [1] (GABA to axon initial segment, high [Cl−]in, whole cell mode, n=4 cells) is on record as 7±3 % of trials. Moreover, in assay [1] (high [Cl−]in intracellular solution, whole cell mode, n=4 cells), the “threshold potential of spikes triggered by GABA applied to axon initial segment” value is listed as −64.2±2.8 mV. Besides, the “triggering short latency spikes from hyperpolarized membrane potentials” value in assay [1] (pressure application of GABA to axon initial segment, high [Cl−]in) is on record as “not effective”.

As for `NS(=O)(=O)c1cccc2c1c([N+](=O)[O-])cc1nc(O)c(O)nc12` [NBQX], the “effect on unitary IPSP” value in assay [2] (NBQX 10 μM) was “no effect”. Moreover, in assay [2] (NBQX 10 μM, recovery upon washout), the “effect on disynaptic EPSPs triggered by AACs” value is on record as “blocked; also recorded: reversibly eliminated”.

Take `COc1ccc(-c2ccc(=N)n(CCCC(=O)O)n2)cc1` [gabazine]: the “effect on disynaptic EPSPs and downstream spikes” value in the assay with human axo-axonic cell is listed as “blocked”. In addition, in assay [2] (setting [3]), the “effect on disynaptic EPSPs triggered by AACs” value was “blocked” and the “effect on monosynaptic (unitary) IPSPs” value is given as “blocked”.

Source of the values: patent US20090017486A1, “METHOD AND TEST KIT FOR THE IDENTIFICATION OF COMPOUNDS SPECIFICALLY MODULATING THE ACTION OF CORTICAL AXO-AXONIC CELLS” (priority 2005, published 2009).
